Here are results for 14 compounds from ChEMBL document CHEMBL4823285, “Synthesis and evaluation of antimycobacterial activity of riboflavin derivatives” (Bioorg Med Chem Lett, 2021).

In brackets after ≈: the same amount, converted by molar mass. Activity calls are given as the source filed them.

A short description of experiment [1]: Selectivity index, ratio of MIC99 for Mycobacterium tuberculosis H37Rv to IC50 for human THP-1 cells. The class given is functional.
Experiment [2] has as its system Mycobacterium tuberculosis. The experiment is described as follows: Antimycobacterial activity against Mycobacterium tuberculosis H37Rv assessed as inhibition of visible growth […]. The format is functional.
The test system of experiment [3] is FMN riboswitch. The experiment is described as follows: Binding affinity to Lactobacillus plantarum NCDO 1752 FMN riboswitch at 150 nM measured by fluorescence assay. The class given is nucleic-acid assay. As to conditions: Lactiplantibacillus plantarum.
For experiment [4], the system named is THP-1. The experiment is described as follows: Cytotoxicity against human THP-1 cells assessed as cell viability measured after 96 hrs by MTT assay. The conditions noted are these: THP-1, 96 h. The class given is cell-based. In general terms: Tetrazolium dyes change colour on reduction, which living cells bring about.
In experiment [5] the test system is Staphylococcus aureus. The experiment is described as follows: Antibacterial activity against Staphylococcus aureus assessed as inhibition of bacterial growth at 100 to 200 uM. The class given is functional. The conditions noted are these: dose 100-200 µM.
In experiment [6] the test system is Bacillus subtilis. The experiment is described as follows: Antibacterial activity against Bacillus subtilis assessed as inhibition of bacterial growth at 100 to 200 uM. The class given is functional. As to conditions: dose 100-200 µM.
The test system of experiment [7] is Staphylococcus aureus. The experiment is described as follows: Antibacterial activity against Staphylococcus aureus assessed as inhibition of bacterial growth. The class given is functional.
Experiment [8] has as its system Bacillus subtilis. The experiment is described as follows: Antibacterial activity against Bacillus subtilis assessed as inhibition of bacterial growth. The class given is functional.

Consider `Cc1cc2nc3c(=O)[nH]c(=O)nc-3n(CC(O)O)c2cc1C`, for which, in experiment [1], the “Selectivity Index” value is given as greater than 10.7. For the same compound, the MIC99 in experiment [2] stood at 6.25 µM (≈ 1.89 µg/mL). The Kb in experiment [3] is 5.42 10^5/M. The IC50 in experiment [4] was greater than 100 µM.
In the case of `CCCC(=O)OC[C@H](OC(=O)CCC)[C@H](O)[C@H](O)Cn1c2nc(=O)[nH]c(=O)c-2nc2cc(C)c(C)cc21`, the “inhibition (INH)” value in experiment [5] and in experiment [6] was greater than 90% in each case. Moreover, the “Selectivity Index” value in experiment [1] is listed as greater than 4. Further, the MIC99 in experiment [2] was 25 µM (≈ 12.9 µg/mL). Besides, in experiment [4], the IC50 is greater than 100 µM.
In the case of `CC(=O)OC[C@H](OC(C)=O)[C@H](OC(C)=O)[C@@H](Cn1c2nc(=O)[nH]c(=O)c-2nc2cc(C)c(C)cc21)OC(C)=O`, in experiment [1], the “Selectivity Index” value turned out to be 1. In experiment [2], the MIC99 came to 25 µM (≈ 13.6 µg/mL). Moreover, the IC50 in experiment [4] is 25 µM.
Turning to `CCCCCCCCCCCC(=O)OC[C@H](OC(=O)CCCCCCCCCCC)[C@H](OC(=O)CCCCCCCCCCC)[C@@H](Cn1c2nc(=O)[nH]c(=O)c-2nc2cc(C)c(C)cc21)OC(=O)CCCCCCCCCCC`, the minimum inhibitory concentration (MIC) in experiment [7] and in experiment [8] was 100 µM (≈ 111 µg/mL) in each case. Besides, the “Selectivity Index” value in experiment [1] was 1. The MIC99 in experiment [2] is greater than 50 µM. Moreover, the IC50 in experiment [4] was greater than 50 µM.
Turning to `CCCCCCCCCCCC(=O)OC[C@H](OC(=O)CCCCCCCCCCC)[C@H](OC(=O)CCCCCCCCCCC)[C@H](O)Cn1c2nc(=O)[nH]c(=O)c-2nc2cc(C)c(C)cc21`, the inhibition entry in experiment [7] and in experiment [8] was “Active” each time. Moreover, the “Selectivity Index” value in experiment [1] turned out to be 1. Moreover, the MIC99 in experiment [2] is greater than 50 µM. Further, in experiment [4], the 50% inhibitory concentration (IC50) turned out to be 50 µM.
With `NNC(=O)c1ccncc1` [ISONIAZID], in experiment [2], the MIC99 was 0.78 µM (≈ 0.107 µg/mL). For the same compound, the concentration for half-maximal inhibition (IC50) in experiment [4] amounted to 100 µM.
As for `CCCC(=O)OC[C@H](OC(=O)CCC)[C@H](OC(=O)CCC)[C@H](O)Cn1c2nc(=O)[nH]c(=O)c-2nc2cc(C)c(C)cc21`, the “inhibition (INH)” value in experiment [5] and in experiment [6] was greater than 90% each time. Moreover, the “Selectivity Index” value in experiment [1] is recorded as greater than 2. The MIC99 in experiment [2] amounted to 50 µM (≈ 29.3 µg/mL). Moreover, in experiment [4], the IC50 is greater than 100 µM.
`CCCCCC(=O)OC[C@H](OC(=O)CCCCC)[C@H](OC(=O)CCCCC)[C@H](O)Cn1c2nc(=O)[nH]c(=O)c-2nc2cc(C)c(C)cc21`: the “Selectivity Index” value in experiment [1] is recorded as greater than 4. Further, the MIC99 in experiment [2] worked out at 25 µM (≈ 16.8 µg/mL). Further, the half-maximal inhibitory concentration (IC50) in experiment [4] is greater than 100 µM.
Consider `CCCC(=O)OC[C@H](OC(=O)CCC)[C@H](OC(=O)CCC)[C@@H](Cn1c2nc(=O)[nH]c(=O)c-2nc2cc(C)c(C)cc21)OC(=O)CCC`, for which the “inhibition (INH)” value in experiment [5] and in experiment [6] was greater than 90% in each case. Besides, in experiment [1], the “Selectivity Index” value stood at 2. The MIC99 in experiment [2] stood at 50 µM (≈ 32.8 µg/mL). Moreover, the IC50 in experiment [4] came out at 100 µM.
Consider `CCCCCCCCCCCC(=O)OC[C@H](O)[C@H](O)[C@H](O)Cn1c2nc(=O)[nH]c(=O)c-2nc2cc(C)c(C)cc21`, for which the “Selectivity Index” value in experiment [1] amounted to 1. In experiment [2], the MIC99 was greater than 50 µM. The half-inhibitory concentration (IC50) in experiment [4] came out at 50 µM.
For `CC(=O)OC[C@H](OC(C)=O)[C@H](OC(C)=O)[C@@H](Cn1c2nc(=O)n(C)c(=O)c-2nc2cc(C)c(C)cc21)OC(C)=O`, in that order: greater than 2, 12.5 µM (≈ 6.98 µg/mL) and greater than 100 µM.
For `CCCCCC(=O)OC[C@H](OC(=O)CCCCC)[C@H](OC(=O)CCCCC)[C@@H](Cn1c2nc(=O)[nH]c(=O)c-2nc2cc(C)c(C)cc21)OC(=O)CCCCC`, in that order: greater than 1, 50 µM (≈ 38.4 µg/mL) and greater than 50 µM.
For `CCCCCCCCCCCC(=O)OC[C@H](OC(=O)CCCCCCCCCCC)[C@H](O)[C@H](O)Cn1c2nc(=O)[nH]c(=O)c-2nc2cc(C)c(C)cc21`, in that order: less than 0.5, greater than 50 µM and 25 µM.
As to `Cc1cc2nc3c(=O)[nH]c(=O)nc-3n(CCO)c2cc1C`, the “Selectivity Index” value in experiment [1] was 1. In addition, in experiment [2], the MIC99 is greater than 50 µM. Moreover, the 50% inhibitory concentration (IC50) in experiment [4] was greater than 50 µM.

As usually defined, the MIC99 is the lowest concentration that inhibits either 99% of growth or 99% of the strains tested, depending on the study. By IC50 is commonly meant the midpoint of a concentration-inhibition curve. The MIC is the smallest concentration in the dilution series that meets the test's criterion for growth inhibition.
